Measured values taken from patent US6984656B2, “Core modified porphyrins” (priority 2001, dated 2006).

Columns and labels:
[1] = Quantum yield for the generation of singlet oxygen; type: physicochemical; conditions: aqueous solution
Colo-26 tumors = experiment: PDT against implanted Colo-26 tumors in BALB/c mice; type: in vivo; conditions: 135 J cm^−2; DH-105 2.5, DH-82 0.13, MA-99 0.15 mg/kg, 694 nm 4 h post-injection; Photofrin® 2.5 mg/kg, 630 nm 24 h
Procedure: Core-modified porphyrin 6 gave a PDT response in vivo with 694-nm light in BALB/c mice bearing Colo-26 tumors. Animals treated with photosensitizer 6 at 3.25 mg (3.0 μmol)/kg and light required 10.3±0.8 d to reach 400-mm^3 tumor volume, which was more than double the time for control animals (4.3±1.0 d) receiving neither drug nor light (P <0.01).
The animals were irradiated 4 h post-injection with 135 J cm^−2 of 694-nm red light from a dye laser (75 mW cm^−2 for 30 min). […] For comparison purposes, BALB/C mice bearing Colo-26 tumors were given 2.5 mg (4.0 μmol)/kg of Photofrin® as a 5% aqueous dextrose solution and were irradiated 24 h later with 135 J cm^−2 of 630-nm laser light at a power of 75 mW cm^−2 for PDT with Photofrin®.
Animals initially were given i.v. (tail vein) injections of sensitizer at various concentrations (0.05to 5.0 μmol/kg). Mice were restrained at various times thereafter without anesthesia in specially designed holders. Fischer 344 female rats were chemically restrained at various times thereafter. In both models, tumors or normal back skin were exposed to light from a xenon arc lamp with appropriate filters or to a dye laser tuned to the absorption maximum determined by in vivo reflectance measurements. Power density of delivered light typically fell in the range of 10-200 mW cm^−2 evenly distributed to a spot size of roughly 1.5 cm and measured by a radiometer. Several dose rates were explored to examine role/limitation of available oxygen on the photodynamic process. Intratumor temperatures were measured with an Omega HYP-O microthermocouple and, when necessary, a stream of nitrogen gas was used to keep intratumor temperatures below 37° C. Animals were examined and measured daily for the first 14 days post treatment and every other day thereafter until the tumors reached 400 mm^3 in mice or until the tumors double in size for Fischer 344 female rats or for 90 days. Tumor size were measured in two dimensions with a caliper. Time to 400 mm^3 or volume doubling times of tumors from control and PDT-treated groups (8-12 animals per group) were compared statistically using the SAS statistical program (SAS, Inc., Cary, N.C.). A P-value of <0.05 is considered significant. The degree of damage to the normal skin within the irradiation field also were noted. Disappearance of tumor with minimal damage to normal skin is the most desirable response. Animals are considered cured if no tumor regrowth occurs by 90 days. In all studies, three control groups were utilized in addition to the treatment group receiving both sensitizer and light: 1) a complete control receiving neither drug nor light, 2) a group receiving sensitizer only, and 3) a group receiving light only. Representative animals from each of the treatment groups were processed for histology immediately, one day, or two weeks after irradiation. Step sections through the tumor were used to define the boundaries of tumor cell damage and death as a function of distance from the skin surface.

With `O=C([O-])COc1ccc(-c2c3nc(c(-c4ccc(F)cc4)c4ccc(s4)c(-c4ccc(F)cc4)c4nc(c(-c5ccc(OCC(=O)[O-])cc5)c5ccc2s5)C=C4)C=C3)cc1.[Na+].[Na+]` [MA-99] the “quantum yield for the generation of singlet oxygen φ(^1O2)” value [1] was 0.71 ± 0.02, the “cures (no tumor regrowth 90 days post-treatment)” value (Colo-26 tumors) was “five cures” and the “mean time to 400 mm^3 of the animals not cured” value (Colo-26 tumors) was 23 ± 7 days.
